The text below walks through data of US10618935B2, “Antibody-drug conjugate (ADC) and method for forming the same” (Industrial Technology Research Institute, priority 2015, dated 2020).

Series [1] has as its system FaDu cells. The series is described as follows: Tumor growth inhibition test, FaDu subcutaneous tumor in C.B-17 SCID mice. The series is classed as in vivo. The settings on record: Day 8-29; 0.1 mg/kg intravenously once at Day 8; n=6.
Method: (§1) 1×10^6 of FaDu cells were subcutaneous injected to C.B-17 SCID mice at Day 0. The length and width of the tumor were measured and the tumor size was calculated by (length×width×width×½) (mm^3) and recorded. […] Tumor growth and body weight of the mice were observed twice every week.
Series [2] in a line: Body weight and clinical symptoms in the tumor growth inhibition test. The note with it: FIG. 20.
Method: as §1

Molecules are shown by their SMILES. Square brackets hold non-standard residues; d marks the D form. Peptide text beside a SMILES is read from it. * marks the point of attachment. Dolaproine = CO[C@@H]([C@@H]1CCCN1)[C@@H](C)C(=O)O; Dil = CC[C@H](C)[C@H](NC)[C@@H](CC(=O)O)OC; X2 = C[C@@H](N*)[C@@H](O)c1ccccc1; NMeV = CN[C@H](C(=O)O)C(C)C

For the molecule `CC[C@H](C)C([C@@H](CC(=O)N1CCC[C@H]1[C@H](OC)[C@@H](C)C(=O)NC(Cc1ccccc1)C(=O)NCCc1ccc(N)cc1)OC)N(C)C(=O)C(NC(=O)[C@H](C(C)C)N(C)C)C(C)C` (stereo partly shown) [APEA-AF], the “TGI (%) ± SEM” value in series [1] was 11 ± 17%. In addition, the “weight loss or abnormal clinical symptoms after drug administration” value in series [2] is “no weight losing or other significant abnormal clinical symptoms occurred”.

With `CC[C@H](C)[C@@H]([C@@H](CC(=O)N1CCC[C@H]1[C@H](OC)[C@@H](C)C(=O)N[C@H](C)[C@@H](O)c1ccccc1)OC)N(C)C(=O)[C@@H](NC(=O)[C@@H](NC)C(C)C)C(C)C` [MMAE] (H-[NMeV]V[Dil][Dolaproine]-X2), the “TGI (%) ± SEM” value in series [1] is reported as 12 ± 6%. For the same molecule, in series [2], the “weight loss or abnormal clinical symptoms after drug administration” value is on record as “no weight losing or other significant abnormal clinical symptoms occurred”.
